Measured values: US4232121A, “Process for selecting methine dyes which inhibit cell growth” (Eastman Kodak Company, priority 1978, dated 1980)
Where two headings read alike, the source gives them in different places.

Columns and labels:
[1] = Solubility / stability comments on the dyes; format: physicochemical; details: Table IX
Sea Urchin Eggs = assay: Inhibition of cell division in fertilized sea urchin eggs; format: cell-based; details: arbitrary scale 0 to 5, 5 most active; dye 10^-5 to 10^-6 molar, 60 minutes after fertilization
Method: To suspensions in filtered sea water of fertilized sea urchin eggs there was added, three minutes after fertilization, methanolic solutions of the dyes in an amount sufficient to yield a final concentration of dye of between 10^-5 and 10^-6 molar. The final concentration of methanol was, at a maximum 1×10^-4 molar. The eggs were visually observed at 60 minutes after fertilization to determine if cell division and the formation of mitotic apparatus had been inhibited. A rating was assigned based on the concentration of dye required to inhibit cell division and synthesis of DNA.

[2] = not told
Method: (§1) If a published reduction potential is not available, suitable techniques for measuring reduction potential are available and can be used. […] This technique involves measurement at 20° C., of an approximately 10^-4 molar solution of the dye in an electrolyte, such as methanol which is 0.05 molar in lithium chloride, using a dropping mercury electrode. The potential values are reported by reference to a silver-silver chloride electrode in a saturated solution of potassium chloride at 20° C.

[3] = Oxidation potential (Eox) of the dye; format: physicochemical; details: Tables I, II, V, VI
[4] = test system: Bacillus pumilus strain K-1; assay: Inhibition of bacterial growth, filter paper on inoculated agar plates; format: cell-based; details: Tables V and VI; 10^-3 molar, three days
[5] = Reduction potential (ER) of the dye; details: Tables I, II, V, VI, VII, IX
Method: as §1

In the case of `CCN1C(=CC=Cc2sc3ccc4ccccc4c3[n+]2CC)Sc2ccc3ccccc3c21` [Dye 12], the “% Bound” value (Bacillus pumilus (K-1)) is reported as 93.1%, the “Comment: solubility” value [1] is reported as “Insoluble” and the “Sea Urchin Eggs Activity” value (Sea Urchin Eggs) is reported as 0. The ER [2] was -1.12 and the “reduction potential (ER)” value [2] was -1.12 volts.
For `CCN1C(=CC=Cc2sc3cc([N+](=O)[O-])ccc3[n+]2CC)Sc2cc([N+](=O)[O-])ccc21` [17,6,6'-dinitro], the Eox [3] was “+.96”, the “Diameter of Inhibition” value [4] was “None” and the ER [5] was “-.58”.
